Results reported in patent publication US9204653B2, “5-fluoro pyrimidine derivatives” (DOW AGROSCIENCES LLC, priority 2008, dated 2015).
Like-named read-outs stand apart in the source and are kept apart here.

Experiments:
[1] = system: Mycosphaerella graminicola; Anamorph: Septoria tritici; Bayer Code SEPTTR; experiment: Leaf blotch of wheat, foliar fungicide treatment, one day protectant (1DP) or three day curative (3DC); format: in vivo, Septoria tritici on wheat plants (variety Yuma); settings: Zymoseptoria tritici, rating of percent disease control
[2] = system: Cercospora beticola; Bayer Code CERCBE; experiment: Leaf spot of sugar beets; format: in vivo, Cercospora beticola on sugar beets (variety HH-88); settings: 24 h, % disease control rating, one day protectant; for pest or weed control at 25 ppm: read-out: CERCBE 1 DP 25 ppm; for pest or weed control at 75 ppm: read-out: CERCBE 1 DP 75 ppm
[3] = system: Venturia inaequalis; Bayer Code VENTIN; experiment: Apple scab; format: in vivo; settings: 24 h, % disease control rating, one day protectant; for pest or weed control at 25 ppm: read-out: VENTIN 1 DP 25 ppm; for pest or weed control at 75 ppm: read-out: VENTIN 1 DP 75 ppm
[4] = 24 h, one day protectant (1DP), read-out: SETTTR 1DP 25 ppm
[5] = 24 h, one day protectant (1DP), read-out: SEPTTR 1DP 100 ppm
[6] = 72 h, three day curative (3DC), read-out: SEPTTR 3DC 25 ppm
[7] = 72 h, three day curative (3DC), read-out: SEPTTR 3DC 100 ppm

| Compound | pest or weed control at 25 ppm [1, 4] | pest or weed control at 100 ppm [1, 5] | pest or weed control at 25 ppm [1, 6] | pest or weed control at 100 ppm [1, 7] | pest or weed control at 25 ppm [2] | pest or weed control at 75 ppm [2] | pest or weed control at 25 ppm [3] | pest or weed control at 75 ppm [3] |
| --- | --- | --- | --- | --- | --- | --- | --- | --- |
| COc1ccc(Oc2ncc(F)c(/N=C/N(C)C)n2)cc1 [Compound 187] | 0 to 25% | 0 to 25% | 0 to 25% | 51 to 75% | 0 to 25% | 26 to 50% | 51 to 75% | 26 to 50% |
| COc1c(C)cnc(COc2ncc(F)c(N)n2)c1C [Compound 189] | 51 to 75% | 76 to 100% | 51 to 75% | 76 to 100% | 26 to 50% | 0 to 25% | 51 to 75% | 51 to 75% |
| CS(=O)(=O)c1ccc(COc2ncc(F)c(N)n2)cc1 [Compound 207] | 0 to 25% | 26 to 50% | 0 to 25% | 0 to 25% | 0 to 25% | 0 to 25% | 0 to 25% | 26 to 50% |
| Cn1nc(C(F)(F)F)c(COc2ncc(F)c(N)n2)c1Cl [Compound 211] | 76 to 100% | 76 to 100% | 76 to 100% | 76 to 100% | 0 to 25% | 0 to 25% | 26 to 50% | 51 to 75% |
| CC(=O)Nc1nc(OCCNc2ccccc2)ncc1F [Compound 214] | 0 to 25% | 0 to 25% | 0 to 25% | 0 to 25% | 51 to 75% | 51 to 75% | 76 to 100% | 76 to 100% |
| O=C1OC(Nc2nc(OCc3ccc(F)cc3)ncc2F)c2ccccc21 (centres unmarked) [Compound 226] | 76 to 100% | 76 to 100% | 76 to 100% | 76 to 100% | 0 to 25% | 26 to 50% | 26 to 50% | 76 to 100% |
| CONc1nc(OCc2ccc(F)cc2)ncc1F [Compound 233] | 51 to 75% | 76 to 100% | 76 to 100% | 76 to 100% | 0 to 25% | 0 to 25% | 0 to 25% | 51 to 75% |
| CN(C)/C=N/c1nc(OCCNc2ccccc2)ncc1F [Compound 248] | 0 to 25% | 76 to 100% | 76 to 100% | 76 to 100% | 0 to 25% | 0 to 25% | 0 to 25% | 51 to 75% |
| Cc1oc(-c2ccccc2)cc1COc1ncc(F)c(N)n1 [Compound 251] | 76 to 100% | 76 to 100% | 76 to 100% | 76 to 100% | 0 to 25% | 51 to 75% | 76 to 100% | 76 to 100% |
| CN(C)/C=N/c1nc(OC(=O)c2ccc(Cl)cc2Cl)ncc1F [Compound 260] | 76 to 100% | 76 to 100% | 76 to 100% | 76 to 100% | 76 to 100% | 51 to 75% | 76 to 100% | 76 to 100% |
| Nc1nc(OCCN2CCCC2=O)ncc1F [Compound 270] | 0 to 25% | 0 to 25% | 0 to 25% | 0 to 25% | 26 to 50% | 26 to 50% | 0 to 25% | 26 to 50% |
| Nc1nc(OCc2ccc(F)cc2C(F)(F)F)ncc1F [Compound 271] | 76 to 100% | 76 to 100% | 51 to 75% | 76 to 100% | 26 to 50% | 26 to 50% | 26 to 50% | 51 to 75% |
| COc1cc(COc2ncc(F)c(N)n2)cc(Cl)n1 [Compound 311] | 76 to 100% | 76 to 100% | 76 to 100% | 76 to 100% | 26 to 50% | 26 to 50% | 26 to 50% | 26 to 50% |
